Laboratory results reported in patent publication US10829796B2, “Bacteria identification and antimicrobial susceptibility test” (priority 2015, dated 2020).

Tested on: bacteria in clinical bovine mastitis milk samples
Assay: Combined bacteria identification and antimicrobial susceptibility test (colour of wells, MIC) on clinical bovine mastitis milk samples
Assay type: cell-based
Procedure: Clinical bovine mastitis milk samples were collected by a vet clinic in South Island, New Zealand. Samples were stored in the freezer for several months and shipped frozen to the testing facility. In this Example, the term “clinical” means that dairy cows had clinical symptoms of an udder infection e.g. cow behaved unusual, milk clots, swollen udder among other typical symptoms. Testing was executed in microwell plate comprising of 24 wells (3×8 wells).
In addition, 20 ul of clinical mastitis sample was added to each well with a laboratory pipette.
Abbreviations • 1. 80 ul GC+10 ul Tell: 80 ul Giolitti Cantoni base broth+10 ul Tellurite solution (1%); • 2. 80 ul TSB/Esc/Fer Cit: 80 ul Tryptic soy broth containing 0.25% Esculin and 0.125% Ammonium Ferric Citrate; • 3. 80 ul TSB/Esc/Fer Cit+10 ul Genta: 80 ul Tryptic soy broth containing 0.25% Esculin and 0.125% Ammonium Ferric Citrate+10 ul of Gentamycin solution 10 mg/ml; • 4. 80 ul McC/PR25: 80 ul MacConkey broth (single strength) containing 0.0125% phenol red; and • 5. 80 ul TSB/PR25: 80 ul Tryptic soy broth containing 0.0125% phenol red. Bacteria Identification
Columns A to C and rows 1 and 2 were used for bacteria identification. A1: coagulase positive Staph; A2: Staphylococci; B1: Strep group D; B2: Strep group D; C1: general enrichment media (gram+ and gram-bacteria); C2: coliform bacteria.
Column A3 to A8: serial dilution of benzyl penicillin as potassium. Column B3 to B8: serial dilution of ceftiofur as hydrochloride. Column C3 to C8: serial dilution of cloxacillin as sodium. Antibiotic concentrations are listed as free form ranging between 4 ug/ml to 0.05 ug/ml.
Minimum inhibitory substance concentration (MIC) is here defined as the concentration if a colour change occurs between two wells (one well remains red with drug concentration 1, the other one yellow with drug concentration 2, whereas drug concentration 1 is larger than drug concentration 2) then the MIC is the value of drug concentration 1.
Table 21 indicates the microwell plate configuration #1; Drugs: Benzylpenicillin as potassium; Cloxacillin as sodium; Ceftiofur as hydrochloride; Drug concentration in each well (A3 to C8) is based on 80 μl composition+10 μl drug solution+20 μl clinical mastitis milk sample and equivalent to listed drug concentration in μg/ml; 20 ul of clinical bovine mastitis milk sample was added to each well (A1 to C8).
In addition, each well received one drop of clinical sample from a transfer pipette which was on average about 35 mg. This was determined through weighing the well plate prior and after the addition of clinical mastitis samples. This weight was then divided by 24.
• 1. 80 ul GC+10 ul Tell: 80 ul Giolitti Cantoni base broth+10 ul Tellurite solution (1%); • 2. 80 ul TSB/Esc/Fer Cit: 80 ul Tryptic soy broth containing 0.25% Esculin and 0.125% Ammonium Ferric Citrate; • 3. 80 ul TSB/Esc/Fer Cit+10 ul Genta: 80 ul Tryptic soy broth containing 0.25% Esculin and 0.125% Ammonium Ferric Citrate+10 ul of Gentamycin solution 10 mg/ml; • 4. 80 ul McC/PR25: 80 ul MacConkey broth (single strength) containing 0.0125% phenol red; and • 5. 80 ul TSB/PR25: 80 ul Tryptic soy broth containing 0.0125% phenol red.
Columns A to C and rows 1 and 2 were used for bacteria identification. A1: coagulase positive Staph; A2: Staphylococci; B1: Strep Group D; B2: -; C1: general enrichment media (gram+ and gram-); C2: coliform bacteria.
Column A3 to A8: serial dilution of benzyl penicillin as potassium. Drug concentrations given as free form ranging between 4 ug/ml to 0.05 ug/ml. Column B3 to B8: serial dilution of ceftiofur as hydrochloride. Drug concentrations given as free form ranging between 4 ug/ml to 0.05 ug/ml. Column C3 to C8: serial dilution of cloxacillin as sodium. Drug concentrations given as free form ranging between 4 ug/ml to 0.05 ug/ml.

Cc1onc(-c2ccccc2Cl)c1C(=O)N[C@@H]1C(=O)N2[C@@H]1SC(C)(C)[C@@H]2C(=O)O [cloxacillin]
Colour of media in each well (ID 1, T = 22 h, 37° C., plate configuration #1, drug 0.05 μg/ml): yellow
Colour of media in each well (ID 1, T = 22 h, 37° C., plate configuration #1, drug 0.1 μg/ml): yellow
Colour of media in each well (ID 1, T = 22 h, 37° C., plate configuration #1, drug 0.5 μg/ml): red
Colour of media in each well (ID 1, T = 22 h, 37° C., plate configuration #1, drug 1 μg/ml): red
Colour of media in each well (ID 1, T = 22 h, 37° C., plate configuration #1, drug 2 μg/ml): red
Colour of media in each well (ID 1, T = 22 h, 37° C., plate configuration #1, drug 4 μg/ml): red
Colour of media in each well (ID 2, T = 48 h, 37° C., plate configuration #1, drug 0.05 μg/ml): yellow
Colour of media in each well (ID 2, T = 48 h, 37° C., plate configuration #1, drug 0.1 μg/ml): yellow
Colour of media in each well (ID 2, T = 48 h, 37° C., plate configuration #1, drug 0.5 μg/ml): red
Colour of media in each well (ID 2, T = 48 h, 37° C., plate configuration #1, drug 1 μg/ml): red
Colour of media in each well (ID 2, T = 48 h, 37° C., plate configuration #1, drug 2 μg/ml): red
Colour of media in each well (ID 2, T = 48 h, 37° C., plate configuration #1, drug 4 μg/ml): red
Colour of media in each well (ID 3, T = 22 h, 37° C., plate configuration #1, drug 0.05 μg/ml): yellow
Colour of media in each well (ID 3, T = 22 h, 37° C., plate configuration #1, drug 0.1 μg/ml): yellow
Colour of media in each well (ID 3, T = 22 h, 37° C., plate configuration #1, drug 0.5 μg/ml): red
Colour of media in each well (ID 3, T = 22 h, 37° C., plate configuration #1, drug 1 μg/ml): red
Colour of media in each well (ID 3, T = 22 h, 37° C., plate configuration #1, drug 2 μg/ml): yellow
Colour of media in each well (ID 3, T = 22 h, 37° C., plate configuration #1, drug 4 μg/ml): yellow
Colour of media in each well (ID 3, T = 23 h, 37° C., Table 34, drug 0.05 μg/ml): yellow
Colour of media in each well (ID 3, T = 23 h, 37° C., Table 34, drug 0.1 μg/ml): yellow
Colour of media in each well (ID 3, T = 23 h, 37° C., Table 34, drug 0.5 μg/ml): red
Colour of media in each well (ID 3, T = 23 h, 37° C., Table 34, drug 1 μg/ml): red
Colour of media in each well (ID 3, T = 23 h, 37° C., Table 34, drug 2 μg/ml): yellow
Colour of media in each well (ID 3, T = 23 h, 37° C., Table 34, drug 4 μg/ml): yellow
Colour of media in each well (ID 3, T~7 h, 37° C., Table 34, drug 0.05 μg/ml): red
Colour of media in each well (ID 3, T~7 h, 37° C., Table 34, drug 0.1 μg/ml): red
Colour of media in each well (ID 3, T~7 h, 37° C., Table 34, drug 0.5 μg/ml): red
Colour of media in each well (ID 3, T~7 h, 37° C., Table 34, drug 1 μg/ml): red
Colour of media in each well (ID 3, T~7 h, 37° C., Table 34, drug 2 μg/ml): red
Colour of media in each well (ID 3, T~7 h, 37° C., Table 34, drug 4 μg/ml): red
Colour of media in each well (ID 3, T~11 h, 37° C., Table 34, drug 0.05 μg/ml): red
Colour of media in each well (ID 3, T~11 h, 37° C., Table 34, drug 0.1 μg/ml): red
Colour of media in each well (ID 3, T~11 h, 37° C., Table 34, drug 0.5 μg/ml): red
Colour of media in each well (ID 3, T~11 h, 37° C., Table 34, drug 1 μg/ml): red
Colour of media in each well (ID 3, T~11 h, 37° C., Table 34, drug 2 μg/ml): red
Colour of media in each well (ID 3, T~11 h, 37° C., Table 34, drug 4 μg/ml): red
Colour of media in each well (ID 4, T = 22 h, 37° C., plate configuration #1, drug 0.05 μg/ml): yellow
Colour of media in each well (ID 4, T = 22 h, 37° C., plate configuration #1, drug 0.1 μg/ml): yellow
Colour of media in each well (ID 4, T = 22 h, 37° C., plate configuration #1, drug 0.5 μg/ml): red
Colour of media in each well (ID 4, T = 22 h, 37° C., plate configuration #1, drug 1 μg/ml): red
Colour of media in each well (ID 4, T = 22 h, 37° C., plate configuration #1, drug 2 μg/ml): red
Colour of media in each well (ID 4, T = 22 h, 37° C., plate configuration #1, drug 4 μg/ml): red
Colour of media in each well (ID 5, T = 23 h, 37° C., plate configuration #2, drug 0.05 μg/ml): yellow
Colour of media in each well (ID 5, T = 23 h, 37° C., plate configuration #2, drug 0.1 μg/ml): yellow
Colour of media in each well (ID 5, T = 23 h, 37° C., plate configuration #2, drug 0.5 μg/ml): red
Colour of media in each well (ID 5, T = 23 h, 37° C., plate configuration #2, drug 1 μg/ml): red
Colour of media in each well (ID 5, T = 23 h, 37° C., plate configuration #2, drug 2 μg/ml): red
Colour of media in each well (ID 5, T = 23 h, 37° C., plate configuration #2, drug 4 μg/ml): red
Colour of media in each well (ID 5 to 8, T = 0 h (prior incubation, reference), plate configuration #2, drug 0.05 μg/ml): red
Colour of media in each well (ID 5 to 8, T = 0 h (prior incubation, reference), plate configuration #2, drug 0.1 μg/ml): red
Colour of media in each well (ID 5 to 8, T = 0 h (prior incubation, reference), plate configuration #2, drug 0.5 μg/ml): red
